The source made the active and inactive calls. No cut-off for these calls is given here.
Experiments:
Type in all cases: functional, cell-based
[1] = test system: HL-60; assay: Anticancer activity against Homo sapiens (human) HL60 cells assessed as inhibition of cell proliferation after 72 hr by MTT assay; conditions: for IC50: HL-60, 72 h
[2] = test system: HCT-116; assay: Anticancer activity against Homo sapiens (human) HCT116 cells assessed as inhibition of cell proliferation after 72 hr by MTT assay; conditions: for IC50: HCT-116, 72 h
[3] = test system: HL-60; assay: Anticancer activity against Homo sapiens (human) HL60 cells assessed as abnormal morphological changes after 48 hr by inverted phase contrast microscopic analysis
[4] = test system: HCT-116; assay: Anticancer activity against Homo sapiens (human) HCT116 cells assessed as reduction in cell number after 48 hr by inverted phase contrast microscopic analysis
[5] = test system: HCT-116; assay: Anticancer activity against Homo sapiens (human) HCT116 cells assessed as cells with abnormal large number of vacuoles in cytoplasm after 48 hr by inverted phase contrast microscopic analysis
[6] = test system: HCT-116; assay: Anticancer activity against Homo sapiens (human) HCT116 cells assessed as abnormal morphological changes after 48 hr by inverted phase contrast microscopic analysis

SMILES: O=c1[nH]cc(F)c(=O)[nH]1 [FLUOROURACIL]
- inhibition [1]: Dose-dependent effect
- IC50 [1]: 5.4 µM
- inhibition [2]: Dose-dependent effect

SMILES: CCCCn1c[n+](Cc2ccc(C[n+]3cn(CCCC)c4ccccc43)cc2)c2ccccc21
- Activity [3]: Active
- Activity [4]: Active
- inhibition [1]: Dose-dependent effect
- IC50 [1]: 55.7 µM
- inhibition [2]: Dose-dependent effect
- IC50 [2]: 18.7 µM

SMILES: CCn1c[n+](Cc2ccc(C[n+]3cn(CC)c4ccccc43)cc2)c2ccccc21
- Activity [3]: Active
- Activity [5]: Active
- inhibition [1]: Dose-dependent effect
- IC50 [1]: 39.5 µM
- inhibition [2]: Dose-dependent effect
- IC50 [2]: 0.3 µM

SMILES: CCCn1c[n+](Cc2ccc(C[n+]3cn(CCC)c4ccccc43)cc2)c2ccccc21
- Activity [3]: Active
- Activity [6]: Active
- inhibition [1]: Dose-dependent effect
- IC50 [1]: 49.4 µM
- inhibition [2]: Dose-dependent effect
- IC50 [2]: 1.4 µM

— ChEMBL document CHEMBL3046403, “Synthesis and anticancer activity of para-xylyl linked bis-benzimidazolium salts and respective Ag(I) N-heterocyclic carbene complexes” (Med Chem Res, 2013)
